Consider one compound from US11318152B2, “Pharmaceutical agent for improving autism spectrum disorder and mental disease” (MATSUTANI CHEMICAL INDUSTRY CO., LTD., priority 2018, dated 2022).

Each structure is given as a SMILES string.

Experiment [1] deals with paraventricular nucleus (PVN), supraoptic nucleus (SON) and new region of the hypothalamus. Description: c-Fos immunostaining of hypothalamus sections after oral administration. The format is in vivo, C57BL/6J male mice. Particulars: oral 1 or 3 g/kg, fasted mice, 90 minutes after administration, vs saline (FIG. 1A). As to the method: (§1) For brain regions that are activated by the oral administration of D-allulose, the expression levels of a neuronal activation marker (c-Fos) were analyzed by the immunostaining method. c-Fos is one of immediate early genes, is a nuclear protein whose expression level increases along with activation of nerves, and thus can be utilized as a neuronal activation marker. C57BL/6J male mice were used as experimental animals and were acclimatized to an environment through preliminary breeding and handling for 1 week or more in individual cages. Saline or D-allulose (1 or 3 g/kg) was orally intragastrically administered to the mice which were fasted for one night, and 90 minutes after the administration, the mice were perfusion fixed in a 4% paraformaldehyde solution and the brains were resected. The organs were postfixed in a 4% paraformaldehyde solution to prepare frozen section specimens. This frozen section specimen was used to immunostain c-Fos. In the case of double immunostaining for oxytocin/vasopressin and c-Fos, the perfusion fixation and the postfixation were conducted in a mixed solution of 4% paraformaldehyde and 0.2% picric acid. Note that in the experiment for analyzing c-FOS expression level (FIG. 1A to FIG. 1D), C57BL/6J male mice of saline group: n=7, 1 g/kg and 3 g/kg D-allulose group: n=5 each were used. […]

Experiment [2] concerns oxytocin (OXT) neurons. The experiment in a line: double immunostaining for oxytocin and c-Fos after oral administration. Particulars: oral 3 g/kg, 90 minutes after administration. The format is in vivo, C57BL/6J male mice. As to the method: as §1, with “In” for “Note that in”, “c-Fos positive neurons in the oxytocin (OXT) neurons of paraventricular nucleus (PVN)” for “c-FOS expression level”, “2A and” for “1A to”, “2B),” for “1D),”, “n=4,” for “n=7, 1 g/kg and”, “n=6 were used. In the experiment for analyzing c-Fos positive neurons in the vasopressin (AVP) neurons of paraventricular nucleus (PVN) (FIG. 2C and FIG. 2D), C57BL/6J male mice of saline group: n=4, 3 g/kg D-allulose group: n=6 were used. In the experiment for analyzing c-Fos positive neurons in the oxytocin (OXT) neurons or vasopressin (AVP) neurons of paraventricular nucleus (PVN) (FIG. 3A and FIG. 3B), C57BL/6J male mice of saline group n=4, 3 g/kg D-allulose group: n=6 were used. In the experiment for analyzing c-Fos positive neurons in the oxytocin (OXT) neurons or vasopressin (AVP) neurons of the new region (FIG. 4A and FIG. 4B), C57BL/6J male mice of saline group: n=4, 3 g/kg D-allulose group: n=6” for “n=5 each”

Experiment [3] deals with vasopressin (AVP) neurons. Description: double immunostaining for vasopressin and c-Fos after oral administration. The format is in vivo, C57BL/6J male mice. To be noted: oral 3 g/kg, 90 minutes after administration. As to the method:
For brain regions that are activated by the oral administration of D-allulose, the expression levels of a neuronal activation marker (c-Fos) were analyzed by the immunostaining method. c-Fos is one of immediate early genes, is a nuclear protein whose expression level increases along with activation of nerves, and thus can be utilized as a neuronal activation marker. C57BL/6J male mice were used as experimental animals and were acclimatized to an environment through preliminary breeding and handling for 1 week or more in individual cages. Saline or D-allulose (1 or 3 g/kg) was orally intragastrically administered to the mice which were fasted for one night, and 90 minutes after the administration, the mice were perfusion fixed in a 4% paraformaldehyde solution and the brains were resected. The organs were postfixed in a 4% paraformaldehyde solution to prepare frozen section specimens. This frozen section specimen was used to immunostain c-Fos. In the case of double immunostaining for oxytocin/vasopressin and c-Fos, the perfusion fixation and the postfixation were conducted in a mixed solution of 4% paraformaldehyde and 0.2% picric acid. In the experiment for analyzing c-Fos positive neurons in the vasopressin (AVP) neurons of paraventricular nucleus (PVN) (FIG. 2C and FIG. 2D), C57BL/6J male mice of saline group: n=4, 3 g/kg D-allulose group: n=6 were used. In the experiment for analyzing c-Fos positive neurons in the oxytocin (OXT) neurons or vasopressin (AVP) neurons of paraventricular nucleus (PVN) (FIG. 3A and FIG. 3B), C57BL/6J male mice of saline group n=4, 3 g/kg D-allulose group: n=6 were used. In the experiment for analyzing c-Fos positive neurons in the oxytocin (OXT) neurons or vasopressin (AVP) neurons of the new region (FIG. 4A and FIG. 4B), C57BL/6J male mice of saline group: n=4, 3 g/kg D-allulose group: n=6 were used. The obtained results are represented by the average values and the standard errors, the statistical testing used the unpaired t-test, * is described by the P value of less than 5% and ** is described by the P value of less than 1%.

Experiment [4] relates to oxytocin mRNA. Description: oxytocin mRNA expression in hypothalamus, quantitative real-time PCR. The format is in vivo, C57BL/6J male mice. To be noted: oral 3 g/kg, 2 hours after administration, vs saline-administered group, relative to 36b4 (FIG. 5). As to the method:
(§2) C57BL/6J male mice (saline group: n=8, D-allulose group: n=9) were used as experimental animals and were acclimatized to an environment through preliminary breeding and handling for 1 week or more in individual cages. Saline or D-allulose (3 g/kg) was orally intragastrically administered to the mice which were fasted for one night, and 2 hours after the administration, the brain's hypothalamus was resected under anesthesia. cDNA was synthesized using the total RNA in hypothalamus as a template. The mRNA expression levels of oxytocin and vasopressin were quantified by the quantitative real-time PCR method. As the housekeeping gene, 36b4 was used. The mRNA expression levels were quantified in accordance with the ΔΔCt method. The target gene expression level in each sample was corrected with the expression level of 36b4 to obtain the relative expression level to 36b4 (ΔCT=the CT value of 36b4−the CT value of the target gene, the relative expression level=2ΔCT).
(§3) Moreover, the mRNA expression level ratio with the average value of the relative expression level of the saline group being set to 1 (the average value of the relative gene expression level of the D-allulose group to 36b4/the average value of the relative expression level of the saline group to 36b4) was obtained to analyze the change in gene expression level in the administration of D-allulose. […]
Background: Real-time PCR tracks product formation cycle by cycle.

For experiment [5], the system named is vasopressin mRNA. The experiment in a line: vasopressin mRNA expression in hypothalamus, quantitative real-time PCR. The class given is in vivo, C57BL/6J male mice. Particulars: oral 3 g/kg, 2 hours after administration, vs saline-administered group, relative to 36b4 (FIG. 5). As to the method: as §2, §3
Experiment [6] has as its system C57BL/6J male mice. The experiment in a line: Open field test. To be noted: 5 minutes exploration. The class given is in vivo. The text has this: The open field test is a test that evaluates spontaneous activity, anxiety-like behavior, and the like in a novel environment by measuring the distance traveled, the number of rearings, the stereotyped behavior, the time spent in the center section, and the like under the novel environment. A mouse is placed in an open field, which is a novel and bright environment for a mouse, and is allowed to freely explore the open field for a certain period of time. The open field has a circular or square shape, and the size, in the case of a square, varies from a side of over 1 m to 30 cm or less. The experiment time is approximately 5 minutes in general, and significant overactivity, dormancy, and the like can be detected through observation for such a short period of time. In addition, a change in the behavior of an animal over time under a novel environment can be observed by recording for a long period of time. Since it is said that mice get accustomed to the open field environment by 30 minutes to approximately 2 hours, the experiment time is often set between 30 minutes to 3 hours. Also, the open field test is often used for analyzing the phenotyping of gene-modified mice and testing the reactivity to pharmaceutical agents. […] The duration of time spent in the center square (9×9 […]) during an exploratory behavior time of 5 minutes was measured.

The subject of experiment [7] is C57BL/6J male mice. Description: Sociality test (social interaction test). The class given is in vivo. Particulars: 10 minutes, vs saline, p<0.05 (FIG. 7B). Here is the method:
The sociality test (also called the social interaction test) is an open field test using 2 individual mice that meet for the first time in order to investigate the sociality. The fundamental procedure of the sociality test is the same as that of the open field test using 1 individual member. However, at the time of starting the behavioral observation, mice are placed at the opposing corners of the field and their moving is recorded as moving picture for 10 minutes. This test is intended to evaluate the sociality of mice by measuring frequencies and times of social behaviors such as sniffing, grooming, attack, and tail-rattling between 2 individual members. C57BL/6J male mice (8-week old) were bred for 1 week under a free-feeding condition with a light-dark cycle of 12 hours and were subjected to the open field and sociality tests. Handling and gavage training was conducted for 4 days before the test. In order to evaluate the sociality with a same-sex mouse, each mouse was placed together with a mouse (new mouse) which it met for the first time in a breeding cage (27×27×20 cm^3) and an accumulation time of the exploratory behavior against the new mouse during an exploratory behavior time of 10 minutes was measured.

In the case of `O=C(CO)[C@H](O)[C@H](O)[C@H](O)CO` [D-allulose], the “c-Fos expression level in the paraventricular nucleus (PVN), the supraoptic nucleus (SON), and a new region of the hypothalamus” value in experiment [1] is on record as “significantly facilitated”. In addition, the “c-Fos expression level in the oxytocin (OXT) neuron of the paraventricular nucleus (PVN)” value in experiment [2] (vs saline (FIGS. 2A, 2B)) is reported as “significantly increased”. Besides, the “activation (c-Fos) of the oxytocin neurons of the supraoptic nucleus (SON)” value in experiment [2] (vs saline (FIGS. 3A, 3B)) is recorded as “activated”. Moreover, the “activation (c-Fos) of the oxytocin neurons in the new region of the hypothalamus” value in experiment [2] (vs saline (FIGS. 4A, 4B)) is listed as “activated”. In addition, in experiment [3] (vs saline (FIGS. 2C, 2D)), the “activation (c-Fos) of the vasopressin (AVP) neuron of the paraventricular nucleus (PVN)” value is listed as “activated”. Also, the “activation (c-Fos) of the vasopressin neurons of the supraoptic nucleus (SON)” value in experiment [3] (vs saline (FIGS. 3A, 3B)) was “activated”. Besides, in experiment [3] (vs saline (FIGS. 4A, 4B)), the “activation (c-Fos) of the vasopressin neurons in the new region of the hypothalamus” value is given as “activated”. Also, the “expression of the mRNA of oxytocin in the hypothalamus” value in experiment [4] is given as “significantly enhanced”. Besides, in experiment [5], the “expression of the mRNA of vasopressin in the hypothalamus” value is recorded as “significantly enhanced”. For the same compound, the “anxiety behavior: duration of time spent in the center square” value is on record as “no significant result” in experiment [6] (1 g/kg oral 30 minutes before test, vs saline (FIG. 6B)) and “significantly improved” in experiment [6] (3 g/kg oral 30 minutes before test, vs saline, p<0.05 (FIG. 6B)). Further, the “social behavior: accumulation time of exploratory behavior against the new mouse” value in experiment [7] (1 g/kg oral) and in experiment [7] (3 g/kg oral) was “significantly facilitated” each time.
